“Also recorded” adds a separate entry of the source.
Assays:
[1] = tested on: H441 lung cancer cells; test: Microarray analysis of gene transcription in H441 cells after antrocin treatment; assay type: cell-based, Homo sapiens; conditions: 12 hours
Description: (§1) The present invention further investigated the effect of antrocin on cancer cells at the genetic level. After H441 cells had been treated with 5 μM antrocin for 12 hours, the effect of antrocin on genetic transcription was analyzed. Only those genes whose expressions were inhibited 3.5 times or more were analyzed as target genes by GeneSpring software package and the results were presented using a tree diagram (FIG. 5). […] These genes play important roles in cell proliferations, inflammatory responses, metastases, invasions, angiogenesis, and cell cycle regulations. […] These genes are associated with transcription factor NF-kB, for example cytokines (IFI44, IFIT1, MX1), inflammatory responses (NFkB1 and IFIT2), stem cell properties (CTNNBL1, SENP2, CEACAM1 and POU5F2), and drug resistance reactions (ABCB5, ABCG2 and XAF1), etc. Based on the aforementioned microarray results, the present invention further investigated protein expressions associated with inflammation related factors, stem cell properties, and drug resistance related molecules.
as §1, with “effect of Antrocin on genetic” for “effect of antrocin on genetic”, “a tree diagram. STRING9.0 software package was also used to predict the effect of antrocin on the signaling pathway of H441 cells and possible target genes to be inhibited (FIG. 5).” for “a tree diagram (FIG. 5).”, “example cytokines (1F144, IFIT1, MX1),” for “example cytokines (IFI44, IFIT1, MX1),”, “further investigated inflammatory responses, stem cell” for “further investigated protein expressions associated with inflammation related factors, stem cell”, “properties, and multidrug resistance-associated protein expressions.” for “properties, and drug resistance related molecules.”

[2] = tested on: H441 cells; test: Apoptosis, flow cytometry; assay type: cell-based, human; conditions: H441, antrocin treatment for 48 hours, FIG. 4 (B)
[3] = tested on: H441-L2G cells; test: Lung tumorigenesis in vivo, bioluminescence imaging and survival; parameters: species or system non-obese diabetic/severe combined immunodeficient mice; conditions: for tumor growth: daily intraperitoneal injection
Description: […] cells (6×10^5/100 μl PBS) were intravenously injected into immunodeficient mice via lateral tail vein. Antrocin treatments (low dose of 5 mg/kg/day and high dose of 10 mg/kg/day) were performed by daily intraperitoneal injection into tumor-bearing mice over a period of four weeks. Weekly observations were performed and data were recorded for (A) VIS images, (B) Tumor growth, (C) Body weights, and (D) Survival curves.
The present invention further investigated anticancer effect of antrocin in vivo. H441-L2G cells expressing firefly luciferase and green fluorescent protein were implanted by intravenous injections via the lateral tail vein (6×10^5/100 μl PBS) into non-obese diabetic/severe combined immunodeficient mice. Daily intraperitoneal injections of antrocin (two groups of mice, a low dose of 5 mg/kg/day and a high dose of 10 mg/kg/day) were given over a period of four weeks to observe tumor growth.
Firefly luminescence genes (firefly luciferase) was introduced into H441 lung cancer stem cells by transgenesis, lung cancer cells (containing firefly luminescence genes) were then isolated from H441 lung cancer stem cells by FACS (Fluorescence-activated cell sorting) and implanted into immunodeficient mice subcutaneously or into the circulation system via the tail vein. IVIS imaging system (IVIS® Imaging System 200 Series, Xenogen) was used in the present embodiment for bioluminescent imaging. All mice were introduced with 150 mg/kg D-luciferin by intraperitoneal injection, after 10 minutes the mice were fixed in the darkroom of the IVIS200, the highly sensitive CCD camera of the IVIS 200 was used to detect the cold light radiated by firefly luminescence genes in H441 cancer cells. All mice were imaged for 120 seconds and the imaging time was shortened when the signal strength was saturated. All mice were anesthetized (2% isoflurane and 98% oxygen gas) and unconscious throughout the entire imaging process. Tumor sizes and signal strength radiated by the cold-light were compared and analyzed by using a software package of the IVI200. The inhibitory effect of antrocin on human lung cancer cells was assessed by using this bio-illumination-imaging system.
The present invention further investigated the anticancer effect of antrocin in vivo. H441-L2G cells expressing firefly luciferase and green fluorescent protein were implanted by intravenous injections via the lateral tail vein (6×10^5/100 μl PBS) into non-obese diabetic/severe combined immunodeficiency mice. Daily intraperitoneal injections of antrocin (two groups of mice, a small dose of 5 mg/kg/day and a large dose of 10 mg/kg/day) were given over a period of four weeks to observe tumor growth.

## C=C1CC[C@H]2C(C)(C)CCC[C@@]23C(=O)OC[C@@H]13 [antrocin]
[1]; 5 μM antrocin
  number of genes whose expressions were significantly affected: more than 100 genes
[1]; ABCB5, probe 8137310, 5 μM antrocin
  Multiple (reduction of gene expression): 3.62
[1]; ABCG2, probe 8101675, 5 μM antrocin
  Multiple (reduction of gene expression): 3.93
[1]; AKT1S1, probe 8038477, 5 μM antrocin
  Multiple (reduction of gene expression): 10.29
[1]; ANG, probe 7973084, 5 μM antrocin
  Multiple (reduction of gene expression): 4.24
[1]; CDC14C, probe 8132803, 5 μM antrocin
  Multiple (reduction of gene expression): 5.49
[1]; CEACAM1, probe 8037205, 5 μM antrocin
  Multiple (reduction of gene expression): 4.99
[1]; CXCL10, probe 8101126, 5 μM antrocin
  Multiple (reduction of gene expression): 4.62
[1]; EDG7, probe 7917276, 5 μM antrocin
  Multiple (reduction of gene expression): 3.75
[1]; EPSTI1, probe 7971296, 5 μM antrocin
  Multiple (reduction of gene expression): 5.61
[1]; FLJ35880, probe 8082585, 5 μM antrocin
  Multiple (reduction of gene expression): 5.48
[1]; FOSL1, probe 7949532, 5 μM antrocin
  Multiple (reduction of gene expression): 9.93
[1]; GDPD1, probe 8008802, 5 μM antrocin
  Multiple (reduction of gene expression): 3.73
[1]; IFI16, probe 7906400, 5 μM antrocin
  Multiple (reduction of gene expression): 4.9
[1]; IFI44, probe 7902553, 5 μM antrocin
  Multiple (reduction of gene expression): 8.3
[1]; IFIT1, probe 7929065, 5 μM antrocin
  Multiple (reduction of gene expression): 5.28
[1]; IFIT2, probe 7929047, 5 μM antrocin
  Multiple (reduction of gene expression): 4.44
[1]; IFITM2, probe 7937330, 5 μM antrocin
  Multiple (reduction of gene expression): 6.16
[1]; LAMP3, probe 8092348, 5 μM antrocin
  Multiple (reduction of gene expression): 3.8
[1]; LBA1, probe 8086125, 5 μM antrocin
  Multiple (reduction of gene expression): 4.35
[1]; LILRA3, probe 8039226, 5 μM antrocin
  Multiple (reduction of gene expression): 4.58
[1]; MX1, probe 8068713, 5 μM antrocin
  Multiple (reduction of gene expression): 5.42
[1]; NFKB1, probe 8096635, 5 μM antrocin
  Multiple (reduction of gene expression): 3.85
[1]; OAS2, probe 7958913, 5 μM antrocin
  Multiple (reduction of gene expression): 5.91
[1]; OASL, probe 7967117, 5 μM antrocin
  Multiple (reduction of gene expression): 4.09
[1]; OR1L8, probe 8163960, 5 μM antrocin
  Multiple (reduction of gene expression): 3.83
[1]; PARP9, probe 8090018, 5 μM antrocin
  Multiple (reduction of gene expression): 4.03
[1]; PARP14, probe 8082100, 5 μM antrocin
  Multiple (reduction of gene expression): 4.3
[1]; POU5F2, probe 8113094, 5 μM antrocin
  Multiple (reduction of gene expression): 3.9
[1]; PPARGC1A, probe 8099633, 5 μM antrocin
  Multiple (reduction of gene expression): 4.44
[1]; RTP4, probe 8084732, 5 μM antrocin
  Multiple (reduction of gene expression): 4.6
[1]; SAMD9L, probe 8140971, 5 μM antrocin
  Multiple (reduction of gene expression): 4.08
[1]; SENP2, probe 8084607, 5 μM antrocin
  Multiple (reduction of gene expression): 8.9
[1]; SIGLEC5, probe 8038877, 5 μM antrocin
  Multiple (reduction of gene expression): 4.94
[1]; SLFN5, probe 8006531, 5 μM antrocin
  Multiple (reduction of gene expression): 3.65
[1]; TAX1BP3, probe 8011407, 5 μM antrocin
  Multiple (reduction of gene expression): 7.15
[1]; TNFSF10, probe 8092169, 5 μM antrocin
  Multiple (reduction of gene expression): 4.09
[1]; TRIM22, probe 7938035, 5 μM antrocin
  Multiple (reduction of gene expression): 7.65
[1]; XAF1, transcript variant 1, probe 8004184, 5 μM antrocin
  Multiple (reduction of gene expression): 12.61
[1]; ZC3H6, probe 8044450, 5 μM antrocin
  Multiple (reduction of gene expression): 3.5
[1]; cDNA DKFZp451O2417, probe 7902541, 5 μM antrocin
  Multiple (reduction of gene expression): 10.74
[1]; catenin, beta like 1 (TNNBL1), probe 8062409, 5 μM antrocin
  Multiple (reduction of gene expression): 3.59
[2]
  number of cells in early and late (final) stage of apoptosis: increase in the number of cells in early and late stage of apoptosis in a dose-dependent fashion; also recorded: increased significantly in a dose-dependent fashion
[3]; at the end of the experiment (the fiftieth day)
  increase of median survival time: at least 60%
[3]; low dose 5 mg/kg/day
  mice that survived for longer than 50 days: 75%
[3]; low dose 5 mg/kg/day, after two weeks
  tumor growth: inhibited after two weeks in half of the mice
[3]; low dose 5 mg/kg/day, third week
  tumor growth: tumor growth was observed in most of these mice
[3]; treated group, control group 28 days, FIG. 7 (D)
  median survival: > 50 days

Source: patent US9045450B2, “Method for chemical synthesis of antrocin and use thereof for suppressing non-small cell lung cancer” (KAIYEW INVESTMENT CORP., priority 2011, dated 2015)
